{
  "source": "patent US20180273970A1",
  "about": "“PLASMID, TRANSFORMED PLANT CELL AND TRANSGENIC PLANT COMPRISING THE SAME, AND METHODS FOR PREPARING A TRANSGENIC PLANT AND FOR INCREASING YIELD OF A PLANT UNDER ABIOTIC STRESSES” (Academia Sinica, priority 2014, published 2018)",
  "tested_on": "MYBS1-GFP",
  "test": "Cellular localization of MYBS1-GFP in transfected barley aleurones (confocal microscopy)",
  "format": "cell-based",
  "details": "−S medium containing ABA, 48 h",
  "description": "FIG. 10. ABA restricts SKINs, SnRK1A and MYBS1 in the cytoplasm under sugar starvation. Barley aleurones were co-transfected with indicated plasmid constructs and incubated in +S or −S medium with ABA (+ABA) or without ABA (−ABA) for 48 h. Thirty optical sections of 0.9-1.1 μm thickness were prepared for each cell and only five regularly spaced sections (sections 3, 9, 15, 21 and 27) are shown here. C and N indicate higher GFP signals, and c and n indicate lower GFP signals in the cytoplasm and nucleus, respectively. For more section images of each cell, see also FIG. 22 online. (A) Barley aleurones were transfected with Ubi:SKIN1-GFP, Ubi:SKIN2-GFP, Ubi:SnRK1A-GFP or Ubi:MYBS1-GFP alone. (B) Barley aleurones were transfected with Ubi.MYBS1-GFP alone (panel 1) or co-transfected with Ubi.MYBS1-GFP and Ubi:SnRK1A (panel 2), or with Ubi.MYBS1-GFP and Ubi:SnRK1A(Ri) (panel 3). (C) Barley aleurones were co-transfected with Ubi:SnRK1A-GFP and Ubi:SKIN(Ri). (D) Wild type rice (WT) or transgenic rice overexpression Ubi:SKIN(Ri) were transfected with Ubi:SnRK1A-GFP (panels 1-3) or Ubi.MYBS1-GFP (panels 4-6).\nDetection of cellular localization of SKIN-GFP, SnRK1A-GFP and MYBS1-GFP fusion proteins were performed as described (Hong et al., 2012). […]",
  "data": [
    {"smiles": "CC1=CC(=O)CC(C)(C)[C@@]1(O)/C=C/C(C)=C\\C(=O)O", "note": "[ABA, abscisic acid]", "values": [
      {"measurement": "Localization of MYBS1-GFP", "value": "exclusively localized in the cytoplasm"}
    ]}
  ]
}
